Legend:
[1] = molecular target: T1, p-Akt1 in LNCaP cells (Homo sapiens, UniProt P31749); assay: Phospho-Akt cellular SureFire assay, p-Akt1 in LNCaP cells; assay type: cell-based; details: read-out: Biological Assay 2 IC50 (nM) Akt1 LNCaP
T1 construct: SureFire assays to detect cellular p-Akt1, p-Akt2 and p-Akt3 levels in WM115 cells (Akt2/3) and LNCaP cells (Akt1); endogenous in cells; host or cells: LNCaP (ECACC 89110211)
Outline: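 Phospho-Thr308 Akt1 detected by AlphaScreen SureFire proximity beads in LNCaP lysates after 15 min compound treatment at 37 °C in 0.1% FBS medium, unstimulated, 0.3% DMSO. Cells plated at 5×10^4/well overnight; IC50 from a 4-parameter equation.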

[2] = molecular target: T2, Akt1 (Homo sapiens, UniProt P31749); assay: Akt activation assay (PDK1-mediated activation, LANCE Ultra crosstide TR-FRET), Akt1; assay type: biochemical; details: read-out: Biological Assay 1 IC50 (nM) Akt1
T2 construct: unspecified tag, removed (detagged) (cleaved yes); purchased SignalChem and Proteros (Akt1); Merck Millipore (PDK1) 14-452 (PDK1); none given for Akt1
Outline: (§1)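 Two-step cascade format: Akt1, Akt2 or Akt3 phosphorylates Ulight-crosstide (100 nM) only after activation by 5 nM PDK1 in presence of PtdIns(3,4,5)P3 vesicles and 100 μM ATP. Product quantified by Eu-antibody TR-FRET after 30 min reaction.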

[3] = molecular target: T3, Akt2 (Homo sapiens, UniProt P31751); assay: Akt activation assay (PDK1-mediated activation, LANCE Ultra crosstide TR-FRET), Akt2; assay type: biochemical; details: read-out: Biological Assay 1 IC50 (nM) Akt2
T3 construct: unspecified tag, removed (detagged) (cleaved yes); purchased SignalChem and Proteros (Akt2); Merck Millipore (PDK1) 14-452 (PDK1); none given for Akt2
Outline: as §1

[4] = molecular target: T4, p-Akt2 in WM115 cells (Homo sapiens, UniProt P31751); assay: Phospho-Akt cellular SureFire assay, p-Akt2 in WM115 cells; assay type: cell-based; details: insulin stimulated, read-out: Biological Assay 2 IC50 (nM) Akt2 WM115
T4 construct: SureFire assays to detect cellular p-Akt1, p-Akt2 and p-Akt3 levels in WM115 cells (Akt2/3) and LNCaP cells (Akt1); endogenous in cells; host or cells: WM115 (ECACC 91061232), insulin-stimulated
Outline: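 Readout is a bead-proximity SureFire assay pairing a pThr308 Akt antibody with a total Akt2 antibody, lysate and beads incubated 2 h plus 2 h at room temperature in the dark. Before lysis, serum-starved WM115 cells received 100 nM insulin (10 min), then test compound (15 min, 0.3% DMSO); IC50 by 4-parameter equation.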

[5] = molecular target: T5, p-Akt3 in WM115 cells (Homo sapiens, UniProt Q9Y243); assay: Phospho-Akt cellular SureFire assay, p-Akt3 in WM115 cells; assay type: cell-based; details: insulin stimulated, read-out: Biological Assay 2 IC50 (nM) Akt3 WM115
T5 construct: SureFire assays to detect cellular p-Akt1, p-Akt2 and p-Akt3 levels in WM115 cells (Akt2/3) and LNCaP cells (Akt1); endogenous in cells; host or cells: WM115 (ECACC 91061232), insulin-stimulated
Outline: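 pThr308-Akt3 in lysates was quantified by bead-proximity SureFire detection, pairing a phospho-specific antibody with a total Akt3 antibody. Before lysis, WM115 cells in 0.1% FBS medium were treated for 15 min at 37 °C with compound (final DMSO 0.3%), following a 10 min stimulation with 100 nM insulin. IC50 was obtained by 4-parameter fitting.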

[6] = molecular target: T6, Akt3 (Homo sapiens, UniProt Q9Y243); assay: Akt activation assay (PDK1-mediated activation, LANCE Ultra crosstide TR-FRET), Akt3; assay type: biochemical; details: read-out: Biological Assay 1 IC50 (nM) Akt3
T6 construct: unspecified tag, removed (detagged) (cleaved yes); purchased SignalChem and Proteros (Akt3); Merck Millipore (PDK1) 14-452 (PDK1); none given for Akt3
Outline: as §1

T5 sequence (Q9Y243 whole entry): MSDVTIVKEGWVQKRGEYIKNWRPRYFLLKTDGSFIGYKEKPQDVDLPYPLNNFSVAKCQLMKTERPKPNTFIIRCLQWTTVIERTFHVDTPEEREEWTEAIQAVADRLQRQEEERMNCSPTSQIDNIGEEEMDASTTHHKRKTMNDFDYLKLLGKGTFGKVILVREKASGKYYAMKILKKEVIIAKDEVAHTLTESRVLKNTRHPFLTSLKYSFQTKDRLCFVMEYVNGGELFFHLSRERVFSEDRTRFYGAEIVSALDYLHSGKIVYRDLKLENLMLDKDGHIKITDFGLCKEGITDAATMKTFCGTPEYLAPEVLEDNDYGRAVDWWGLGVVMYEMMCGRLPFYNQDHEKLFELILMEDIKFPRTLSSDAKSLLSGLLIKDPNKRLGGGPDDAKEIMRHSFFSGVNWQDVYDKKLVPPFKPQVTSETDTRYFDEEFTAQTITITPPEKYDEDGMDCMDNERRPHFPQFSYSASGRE
T6 sequence (Q9Y243 whole entry): as above
T1 sequence (P31749 whole entry): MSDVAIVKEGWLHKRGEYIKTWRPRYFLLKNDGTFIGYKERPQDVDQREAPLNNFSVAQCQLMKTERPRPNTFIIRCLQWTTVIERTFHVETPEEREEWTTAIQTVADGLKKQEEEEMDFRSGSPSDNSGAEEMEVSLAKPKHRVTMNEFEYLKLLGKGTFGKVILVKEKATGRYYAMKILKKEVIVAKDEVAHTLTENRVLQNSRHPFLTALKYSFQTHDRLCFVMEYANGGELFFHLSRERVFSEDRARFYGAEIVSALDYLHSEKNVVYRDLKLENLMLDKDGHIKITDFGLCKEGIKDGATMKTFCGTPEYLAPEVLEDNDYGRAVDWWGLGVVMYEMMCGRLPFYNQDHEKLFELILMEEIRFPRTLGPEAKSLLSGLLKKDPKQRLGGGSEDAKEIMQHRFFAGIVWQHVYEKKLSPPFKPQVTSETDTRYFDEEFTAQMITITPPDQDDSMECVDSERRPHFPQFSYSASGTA
T2 sequence (P31749 whole entry): as above
T3 sequence (P31751 whole entry): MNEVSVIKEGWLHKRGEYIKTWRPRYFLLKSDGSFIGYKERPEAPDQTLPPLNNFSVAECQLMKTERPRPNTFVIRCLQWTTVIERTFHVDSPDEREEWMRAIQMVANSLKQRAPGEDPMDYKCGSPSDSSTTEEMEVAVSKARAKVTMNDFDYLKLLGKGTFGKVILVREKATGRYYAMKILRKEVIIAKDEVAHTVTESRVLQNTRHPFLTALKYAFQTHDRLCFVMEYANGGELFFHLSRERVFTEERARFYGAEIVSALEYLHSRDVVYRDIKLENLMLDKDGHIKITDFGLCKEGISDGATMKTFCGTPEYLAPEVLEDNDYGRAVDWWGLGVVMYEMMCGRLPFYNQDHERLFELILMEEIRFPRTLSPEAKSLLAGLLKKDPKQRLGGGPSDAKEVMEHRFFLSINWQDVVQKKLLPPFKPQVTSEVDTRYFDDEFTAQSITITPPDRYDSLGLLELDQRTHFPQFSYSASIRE
T4 sequence (P31751 whole entry): as above

Row | IC50 [1] [nM] | IC50 [2] [nM] | IC50 [3] [nM] | IC50 [4] [nM] | IC50 [5] [nM] | IC50 [6] [nM] | SMILES
1 | > 30000 | > 30000 | 8900 | > 30000 | 830 | 200 | COC(=O)N(C)[C@H]1CC[C@H](CC(=O)Nc2cnc(-c3ccc(C(C)(C)N)cc3)c(-c3ccsc3)c2)CC1 [Example A67, Methyl (trans-4-(2-((6-(4-(2-aminopropan-2-yl)phenyl)-5-(thiophen-3-yl)pyridin-3-yl)amino)-2-oxoethyl)cyclohexyl)(methyl)carbamate]
2 | > 30000 | > 30000 | 12000 | 6800 | 72 | 470 | CC(=O)N(C)[C@H]1CC[C@H](CC(=O)Nc2cc(-c3ccccc3)c(-c3ccc(C(C)(C)N)cc3)nn2)CC1 [Example 30, N-(6-(4-(2-aminopropan-2-yl)phenyl)-5-phenylpyridazin-3-yl)-2-(trans-4-(N-methylacetamido)cyclohexyl)acetamide]
3 | > 30000 | > 45000 | > 50000 | > 30000 | 1800 | 110 | CC(=O)N[C@H]1CC[C@H](CC(=O)Nc2cnc(-c3ccc(C(C)(C)N)cc3)c(-c3ccccc3)c2)CC1 [Example A19, 2-(trans-4-acetamidocyclohexyl)-N-(6-(4-(2-aminopropan-2-yl)phenyl)-5-phenylpyridin-3-yl)acetamide]
4 | > 30000 | > 30000 | 9200 | 10000 | 300 | 350 | CC(=O)N(C)[C@H]1CC[C@H](CC(=O)Nc2cnc(-c3ccc([C@H](C)N)cc3)c(-c3ccccc3)c2)CC1 [Example 7, N-(6-(4-((S)-1-aminoethyl)phenyl)-5-phenylpyridin-3-yl)-2-(trans-4-(N-methylacetamido)cyclohexyl)acetamide]
5 | > 30000 | > 30000 | 2100 | 11000 | 440 | 370 | CC(C)(N)c1ccc(-c2ncc(NC(=O)C[C@H]3CC[C@H](C(=O)N4CCCC4)CC3)cc2-c2ccccc2)cc1 [Example A47, N-(6-(4-(2-aminopropan-2-yl)phenyl)-5-phenylpyridin-3-yl)-2-(trans-4-(pyrrolidine-1-carbonyl)cyclohexyl)acetamide]
6 | 1900 | 3900 | 63 | 370 | 10 | 4 | CC(C)C(=O)N(C)[C@H]1CC[C@H](CC(=O)Nc2cc(-c3ccccc3)c(-c3ccc([C@]4(N)C[C@](C)(O)C4)cc3)nn2)CC1 [Example A79, N-(trans-4-(2-((6-(4-(trans-1-amino-3-hydroxy-3-methylcyclobutyl)phenyl)-5-phenylpyridazin-3-yl)amino)-2-oxoethyl)cyclohexyl)-N-methylisobutyramide]
7 | > 30000 | > 25000 | 2900 | 2900 | 42 | 31 | CC(=O)N(C)[C@H]1CC[C@H](CC(=O)Nc2cc(-c3ccccc3)c(-c3ccc([C@]4(N)C[C@](C)(O)C4)c(F)c3)nn2)CC1 [Example 127, N-(6-(4-(trans-1-amino-3-hydroxy-3-methylcyclobutyl)-3-fluorophenyl)-5-phenylpyridazin-3-yl)-2-(trans-4-(N-methylacetamido)cyclohexyl)acetamide]
8 | > 30000 | > 30000 | 2800 | 6600 | 210 | 180 | CC(C)(N)c1ccc(-c2cnc(NC(=O)C[C@H]3CC[C@H](N4CCOC4=O)CC3)cc2-c2ccccc2)cc1 [Example 64, N-(5-(4-(2-aminopropan-2-yl)phenyl)-4-phenylpyridin-2-yl)-2-(trans-4-(2-oxooxazolidin-3-yl)cyclohexyl)acetamide]
9 | > 30000 | > 30000 | 1500 | 3000 | 22 | 26 | CCC(=O)N(C)[C@H]1CC[C@H](CC(=O)Nc2cc(-c3ccsc3)c(-c3ccc([C@]4(N)C[C@H](F)C4)cc3)nn2)CC1 [Example 125]
10 | 4000 | 1300 | 98 | 750 | 8 | 3 | C[C@]1(O)C[C@@](N)(c2ccc(-c3nnc(NC(=O)C[C@H]4CC[C@H](N5CCOC5=O)CC4)cc3-c3ccccc3)cc2)C1 [Example 58, N-(6-(4-(trans-1-amino-3-hydroxy-3-methylcyclobutyl)phenyl)-5-phenylpyridazin-3-yl)-2-(trans-4-(2-oxooxazolidin-3-yl)cyclohexyl)acetamide]
11 | > 30000 | > 30000 | 4500 | 7900 | 210 | 960 | CC(C)(N)c1ccc(-c2ncc(NC(=O)C[C@H]3CC[C@H](N4CCOC4=O)CC3)cc2-c2ccccc2)cc1 [Example 42, N-(6-(4-(2-aminopropan-2-yl)phenyl)-5-phenylpyridin-3-yl)-2-(trans-4-(2-oxooxazolidin-3-yl)cyclohexyl)acetamide]
12 | > 30000 | > 30000 | 5700 | 6100 | 470 | 120 | COC(=O)N(C)[C@H]1CC[C@H](CC(=O)Nc2cc(-c3ccccc3F)c(-c3ccc(C4(N)CCC4)cc3)cn2)CC1 [Example A63, Methyl (trans-4-(2-((5-(4-(1-aminocyclobutyl)phenyl)-4-(2-fluorophenyl)pyridin-2-yl)amino)-2-oxoethyl)cyclohexyl)(methyl)carbamate]
13 | > 30000 | > 23000 | 2200 | 6000 | 370 | 57 | CCOC(=O)N(C)[C@H]1CC[C@H](CC(=O)Nc2cc(-c3ccccc3)c(-c3ccc(C4(N)CC4)cc3)nn2)CC1 [Example A94, Ethyl (trans-4-(2-((6-(4-(1-aminocyclopropyl)phenyl)-5-phenylpyridazin-3-yl)amino)-2-oxoethyl)cyclohexyl)(methyl)carbamate]
14 | > 30000 | > 30000 | 10000 | > 30000 | 330 | 100 | COC(=O)N(C)[C@H]1CC[C@H](CC(=O)Nc2cc(-c3ccccc3)c(-c3ccc(C(C)(C)N)cc3)nn2)CC1 [Example 56, Methyl (trans-4-(2-((6-(4-(2-aminopropan-2-yl)phenyl)-5-phenylpyridazin-3-yl)amino)-2-oxoethyl)cyclohexyl)(methyl)carbamate]
15 | > 30000 | > 30000 | 6100 | 5300 | 240 | 75 | CN(C(=O)C1CCC1)[C@H]1CC[C@H](CC(=O)Nc2cnc(-c3ccc(C(C)(C)N)cc3)c(-c3ccccc3)c2)CC1 [Example 47, N-(trans-4-(2-((6-(4-(2-aminopropan-2-yl)phenyl)-5-phenylpyridin-3-yl)amino)-2-oxoethyl)cyclohexyl)-N-methylcyclobutanecarboxamide]
16 | > 30000 | > 30000 | 2500 | 3500 | 110 | 150 | CC(=O)N(C)[C@H]1CC[C@H](CC(=O)Nc2cnc(-c3ccc(C(C)(C)N)cc3)c(-c3ccccc3F)c2)CC1 [Example 9, N-(6-(4-(2-aminopropan-2-yl)phenyl)-5-(2-fluorophenyl)pyridin-3-yl)-2-(trans-4-(N-methylacetamido)cyclohexyl)acetamide]
